Measured values taken from patent publication US9469615B2, “Quinoxalines and AZA-quinoxalines as CRTH2 receptor modulators” (Merck Sharp & Dohme Corp., priority 2010, dated 2016).

Molecular target: T1, hCRTH2 (Homo sapiens, UniProt Q9Y5Y4)
T1 construct: expressed in transfected cells; host or cells: HEK (human embryonic kidney) cells expressing hCRTH2; membrane preparation
T1 sequence (Q9Y5Y4 1-395): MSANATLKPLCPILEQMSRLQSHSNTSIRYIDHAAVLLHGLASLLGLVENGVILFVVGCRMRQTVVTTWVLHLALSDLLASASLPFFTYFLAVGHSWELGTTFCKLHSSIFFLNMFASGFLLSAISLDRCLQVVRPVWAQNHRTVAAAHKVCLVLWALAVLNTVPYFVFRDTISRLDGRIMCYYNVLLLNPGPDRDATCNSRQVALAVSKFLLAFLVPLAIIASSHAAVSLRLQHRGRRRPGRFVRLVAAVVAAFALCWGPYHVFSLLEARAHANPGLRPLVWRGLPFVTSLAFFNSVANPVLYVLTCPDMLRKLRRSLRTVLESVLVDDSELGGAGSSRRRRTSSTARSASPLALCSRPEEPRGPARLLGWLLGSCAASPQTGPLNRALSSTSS
Experiment: Radioligand binding assay ([3H]PGD2 competition, HEK-hCRTH2 membranes)
Conditions: [3H]PGD2 binding
Outline: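 Competition against 3.0 nM [3H]PGD2 was run for 60 min at room temperature in pH 7.4 Tris-HCl buffer with EDTA, 2 mM MnCl2 and 1% DMSO, using 8-20 μg HEK-hCRTH2 membrane protein. 10 μM PGD2 set non-specific binding; filter-bound counts were read by scintillation.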

Ki (rated A-E (Table A)) [nM]	Ki (values in text) [nM]	Structure (SMILES)
0.1 to 2		O=C(O)CCCCc1nc2cc(C(=O)N[C@H]3CCCc4ccccc43)ccc2nc1-c1ccc(Cl)cc1 [16AN, 3-(4-chlorophenyl)-7-[[(1,2,3,4-tetrahydro-1(S)-naphthalenyl)amino]carbonyl]-2-quinoxalinepentanoic acid]
0.1 to 2		O=C(O)CCCCc1nc2cc(C(=O)N[C@H]3CCc4ccccc43)ccc2nc1-c1ccc(Cl)cc1 [16AP, 3-(4-chlorophenyl)-7-[[(2,3-dihydro-1H-inden-1(S)-yl)amino]carbonyl]-2-quinoxalinepentanoic acid]
0.1 to 2		Cc1ccc(CNC(=O)c2ccc3nc(-c4ccc(Cl)cc4)c(CCCCC(=O)O)nc3c2)cc1 [16AQ, 3-(4-chlorophenyl)-7-[[[(4-methylphenyl)methyl]amino]carbonyl]-2-quinoxalinepentanoic acid]
2.1 to 20		O=C(O)CCCCc1nc2cc(C(=O)N[C@@H](CCO)c3ccccc3)ccc2nc1-c1ccc(Cl)cc1 [16AR, 3-(4-chlorophenyl)-7-[[(3-hydroxy-1(S)-phenylpropyl)amino]carbonyl]-2-quinoxalinepentanoic acid]
0.1 to 2		O=C(O)CCCCc1nc2cc(C(=O)NC3Cc4ccccc4C3)ccc2nc1-c1ccc(Cl)cc1 [16AS, 3-(4-ch1orophenyl)-7-[[(2,3-dihydro-1H-inden-2-yl)amino]carbonyl]-2-quinoxalinepentanoic acid]
0.1 to 2		O=C(O)CCCCc1nc2cc(C(=O)NC3CCCc4ccccc43)ccc2nc1-c1ccc(Cl)cc1 (stereo not drawn) [16Ai, 3-(4-chlorophenyl)-7-[[(1,2,3,4-tetrahydro-1-naphthalenyl)amino]carbonyl]-2-quinoxalinepentanoic acid]
0.1 to 2	0.4	O=C(O)CCCCc1nc2cc(C(=O)N[C@@H]3CCc4ccccc43)ccc2nc1-c1ccc(Cl)cc1 [16Ao, 3-(4-chlorophenyl)-7-[[(2,3-dihydro-1H-inden-1(R)-yl)amino]carbonyl]-2-quinoxalinepentanoic acid]
0.1 to 2		O=C(O)CCCCc1nc2cc(C(=O)NCc3cccc(Cl)c3)ccc2nc1-c1ccc(Cl)cc1 [16F, 3-(4-chlorophenyl)-7-[[[(3-chlorophenyl)methyl]amino]carbonyl]-2-quinoxalinepentanoic acid]
0.1 to 2		O=C(O)CCCCc1nc2cc(C(=O)NCc3ccccc3)ccc2nc1-c1ccc(Cl)cc1 [16G, 3-(4-chlorophenyl)-7-[[(phenylmethyl)amino]car-bonyl]-2-quinoxalinepentanoic acid]
0.1 to 2		O=C(O)CCCCc1nc2cc(C(=O)N3CCC(c4ccccc4)C3)ccc2nc1-c1ccc(Cl)cc1 (stereo not drawn) [16H, 3-(4-chlorophenyl)-7-[(3-phenyl-1-pyrrolidinyl)carbonyl]-2-quinoxalinepentanoic acid]
2.1 to 20		O=C(O)CCCCc1nc2cc(C(=O)N3CCC(c4ccccc4)CC3)ccc2nc1-c1ccc(Cl)cc1 [16J, 3-(4-chlorophenyl)-7-[(4-phenyl-1-piperidinyl)carbonyl]-2-quinoxalinepentanoic acid]
0.1 to 2		N#Cc1ccc(CNC(=O)c2ccc3nc(-c4ccc(Cl)cc4)c(CCCCC(=O)O)nc3c2)cc1 [16K, 3-(4-chlorophenyl)-7-[[[(4-cyanophenyl)methyl]amino]carbonyl]-2-quinoxalinepentanoic acid]
2.1 to 20		O=C(O)CCCCc1nc2cc(C(=O)N3CC[C@H](c4ccccc4)C3)ccc2nc1-c1ccc(Cl)cc1 [16L, 3-(4-chlorophenyl)-7-[(3(R)-phenyl-1-pyrrolidinyl)carbonyl]-2-quinoxalinepentanoic acid]
0.1 to 2		O=C(O)CCCCc1nc2cc(C(=O)N3CC[C@@H](c4ccccc4)C3)ccc2nc1-c1ccc(Cl)cc1 [16M, 3-(4-chlorophenyl)-7-[(3(S)-phenyl-1-pyrrolidinyl)carbonyl]-2-quinoxalinepentanoic acid]
0.1 to 2		O=C(O)CCCCc1nc2cc(C(=O)N3CCC[C@H](c4ccccc4)C3)ccc2nc1-c1ccc(Cl)cc1 [16N, 3-(4-chlorophenyl)-7-[(3(R)-phenyl-1-piperidinyl)carbonyl]-2-quinoxalinepentanoic acid]
0.1 to 2		O=C(O)CCCCc1nc2cc(C(=O)NCc3ccc(OC(F)(F)F)cc3)ccc2nc1-c1ccc(Cl)cc1 [16P, 3-(4-chlorophenyl)-7-[[[[4-(trifluoromethoxy)phenyl]methyl]amino]carbonyl]-2-quinoxalinepentanoic acid]
0.1 to 2		O=C(O)CCCCc1nc2cc(C(=O)NCc3cc(Cl)cc(Cl)c3)ccc2nc1-c1ccc(Cl)cc1 [16Q, 3-(4-chlorophenyl)-7-[[[(3,5-dichlorophenyl)methyl]amino]carbonyl]-2-quinoxalinepentanoic acid]
0.1 to 2		O=C(O)CCCCc1nc2cc(C(=O)NCc3ccc(F)cc3)ccc2nc1-c1ccc(Cl)cc1 [16R, 3-(4-chlorophenyl)-7-[[[(4-fluorophenyl)methyl]amino]carbonyl]-2-quinoxalinepentanoic acid]

Ki (rated A-E (Table A)) [nM]	Ki (values in text) [nM]	Structure (SMILES)
0.1 to 2	0.7	C[C@@H](NC(=O)c1ccc2nc(-c3ccc(Cl)cc3)c(CCCCC(=O)O)nc2c1)c1ccc(F)cc1 [16S, 3-(4-chlorophenyl)-7-[[[1(R)-(4-fluorophenyl)ethyl]amino]carbonyl]-2-quinoxalinepentanoic acid]
0.1 to 2		C[C@H](NC(=O)c1ccc2nc(-c3ccc(Cl)cc3)c(CCCCC(=O)O)nc2c1)c1ccc(F)cc1 [16T, 3-(4-chlorophenyl)-7-[[[1(S)-(4-fluorophenyl)ethyl]amino]carbonyl]-2-quinoxalinepentanoic acid]
0.1 to 2		O=C(O)CCCCc1nc2cc(C(=O)NCc3ccc(C(F)(F)F)cc3)ccc2nc1-c1ccc(Cl)cc1 [16U, 3-(4-chlorophenyl)-7-[[[[4-(trifluoromethyl)phenyl]methyl]amino]carbonyl]-2-quinoxalinepentanoic acid]
0.1 to 2	2.7	O=C(O)CCCCc1nc2cc(C(=O)N[C@H](c3ccc(Cl)cc3)C(F)(F)F)ccc2nc1-c1ccc(Cl)cc1 [16V, 3-(4-chlorophenyl)-7-[[[1(R)-(4-chlorophenyl)-2,2,2-trifluoroethyl]amino]carbonyl]-2-quinoxalinepentanoic acid]
0.1 to 2	0.4	O=C(O)CCCCc1nc2cc(C(=O)N[C@@H](c3ccc(Cl)cc3)C(F)(F)F)ccc2nc1-c1ccc(Cl)cc1 [16W]
0.1 to 2		O=C(O)CCCCc1nc2cc(C(=O)N[C@@H](c3ccc(F)cc3)C(F)(F)F)ccc2nc1-c1ccc(Cl)cc1 [16Y, 3-(4-chlorophenyl)-7-[[[2,2,2-trifluoro-1(S)-(4-fluorophenyl)ethyl]amino]carbonyl]-2-quinoxalinepentanoic acid]
2.1 to 20		C[C@H](NC(=O)c1ccc2nc(-c3ccc(Cl)cc3)c(CCCCC(=O)O)nc2c1)c1ccccn1 [16Z, 3-(4-chlorophenyl)-7-[[[1(S)-(2-pyridinyl)ethyl]amino]carbonyl]-2-quinoxalinepentanoic acid]
0.1 to 2		O=C(O)CCCCc1nc2cc(C(=O)N[C@@H](c3ccccc3)C(F)(F)F)ccc2nc1-c1ccc(Cl)cc1 [16i, 3-(4-chlorophenyl)-7-[[(2,2,2-trifluoro-1(s)-phenylethyl)amino]carbonyl]-2-quinoxalinepentanoic acid]
0.1 to 2		O=C(O)CCCCc1nc2cc(C(=O)N3CCC[C@@H](c4ccccc4)C3)ccc2nc1-c1ccc(Cl)cc1 [16o, 3-(4-chlorophenyl)-7-[(3(S)-phenyl-1-piperidinyl)carbonyl]-2-quinoxalinepentanoic acid]
0.1 to 2		CC(CCc1nc2cc(C(=O)N[C@@H](C)c3ccc(Cl)cc3)ccc2nc1-c1ccc(Cl)cc1)CC(=O)O (stereo partly drawn) [17D]
2.1 to 20		CC(CCc1nc2cc(C(=O)N[C@H](C)c3ccc(Cl)cc3)ccc2nc1-c1ccc(Cl)cc1)CC(=O)O (stereo partly drawn) [17E, 3-(4-chlorophenyl)-7-[[[1(R)-(4-chlorophenyl)ethyl]amino]carbonyl]-beta-methyl-2-quinoxalinepentanoic acid]
0.1 to 2		CC(CCc1nc2cc(C(=O)N3CC(c4ccccc4)C3)ccc2nc1-c1ccc(Cl)cc1)CC(=O)O (stereo not drawn) [17F, 3-(4-chlorophenyl)-beta-methyl-7-[(3-phenyl-1-azetidinyl)carbonyl]-2-quinoxalinepentanoic acid]
2.1 to 20		CC(CCc1nc2cc(C(=O)N[C@H](c3ccc(F)cc3)C(F)(F)F)ccc2nc1-c1ccc(Cl)cc1)CC(=O)O (stereo partly drawn) [17G]
2.1 to 20		COc1ccc(CNC(=O)c2ccc3nc(-c4ccc(Cl)cc4)c(CCC(C)CC(=O)O)nc3c2)cc1 (stereo not drawn) [17H]
2.1 to 20		CC(CCc1nc2cc(C(=O)N3CCC[C@H](c4ccccc4)C3)ccc2nc1-c1ccc(Cl)cc1)CC(=O)O (stereo partly drawn) [17J, 3-(4-chlorophenyl)-beta-methyl-7-[(3(R)-phenyl-1-piperidinyl)carbonyl]-2-quinoxalinepentanoic acid]
0.1 to 2		CC(CCc1nc2cc(C(=O)N3CC[C@@H](c4ccccc4)C3)ccc2nc1-c1ccc(Cl)cc1)CC(=O)O (stereo partly drawn) [17K, 3-(4-chlorophenyl)-beta-methyl-7-[(3(S)-phenyl-1-pyrrolidinyl)carbonyl]-2-quinoxalinepentanoic acid]
2.1 to 20		CC(CCc1nc2cc(C(=O)N3CC[C@H](c4ccccc4)C3)ccc2nc1-c1ccc(Cl)cc1)CC(=O)O (stereo partly drawn) [17L, 3-(4-chlorophenyl)-beta-methyl-7-[(3(R)-phenyl-1-pyrrolidinyl)carbonyl]-2-quinoxalinepentanoic acid]
